Experimental data as given in PMC6027146, “Synthesis and Structure-Activity Relationships of (−)-cis-N-Normetazocine-Based LP1 Derivatives” (Pharmaceuticals, 2018).
Where two headings read alike, the source gives them in different places.

Key:
human-KOR [1] = target: T1, human-KOR (Homo sapiens, UniProt P41145); parameters: expressed in transfected cells; method as in PMID 27234885; details: read-out: Ki (μM) ± SEM KOR; [3H]-DPN displacement; cited from earlier work
recombinant human DOR = target: T2, recombinant human DOR (Homo sapiens, UniProt P41143); test: Calcium mobilization assay, CHO-DOR cells expressing GαqG66Di5; format: cell-based; details: for DOR pEC50 (CL95%): agonist mode, crc incomplete = incomplete concentration response curve at 10 μM
T2 construct: expressed in transfected cells; supplied by Dr. Eva Varga (University of Arizona); infected with a retrovirus for GαqG66Di5
Description: (§1) The pharmacological characterization of LP1 derivatives 2 and 10–16 was performed by calcium mobilization assay (Table 2). This procedure was preliminarily validated through a series of experiments where the effects of DPDPE, dermorphin, and dynorphin A were assessed in CHO cells expressing the human recombinant opioid receptors and Gαqi5 or GαqG66Di5 chimeric proteins.
(§2) Chinese hamster ovary (CHO) cells expressing the recombinant human MOR and KOR (CHO^MOR and CHO^KOR) were kindly provided by Dr. Larry Toll (SRI International, Menlo Park, CA, USA), and CHO cells expressing the recombinant human DOR (CHO^DOR) were supplied by Dr. Eva Varga (Department of Medical Pharmacology, The University of Arizona, Tucson, AZ, USA). CHO cells lines permanently coexpressing the opioid receptors and the C-terminally modified Gαqi5 were prepared by infecting the CHO lines described above with a recombinant retrovirus expressing the chimeric α subunit and the hygromycin resistance gene. Similarly, CHO cells lines permanently coexpressing DOR and the C-terminally modified GαqG66Di5 were prepared by infecting the CHO lines described above with a recombinant retrovirus expressing the chimeric α subunit and the hygromycin resistance gene. Polyclonal cell lines were generated using the pantropic retroviral expression system form BD-Clontech, as described previously. Stable lines were selected under hygromycin B (100 μg/mL) and geneticin (600 μg/mL) for 2–3 weeks after the infection.
(§3) CHO cells, expressing human opioid receptors and the Gαqi5 protein, and CHODOR, expressing the GαqG66Di5 protein, were maintained in culture medium consisting of Dulbecco minimum essential medium (DMEM) and Ham F-12 (1:1) (50/50) supplemented with 10% fetal calf serum (FCS), L-glutamine (2 mM), geneticin (200 μg/mL; G418), hygromycin B (100 μg/mL) at 37 °C in 5% CO2 humidified air. When confluence was reached (3–4 days), cells were subcultured as required using trypsin/EDTA, and used for experimentation. The different cell lines were seeded at a density of […] into black 96-well, clear-bottomed plates. After 24 h incubation, the cells were loaded with medium supplemented with 2.5 mM probenecid, 3 μM of the calcium sensitive fluorescent dye Fluo-4 AM, and 0.01% pluronic acid, for 30 min at 37 °C. Afterwards, the loading solution was aspirated and 100 μL/well of assay buffer—HBSS supplemented with 20 mM HEPES, 2.5 mM probenecid and 500 μM Brilliant Black (Aldrich, St. Louis, MO, USA)—was added. Serial dilutions of ligands for experimental use were made in HBSS/HEPES (20 mM) buffer (containing 0.005% BSA fraction V). After placing both plates (cell culture and compound plate) into the FlexStation II (Molecular Device, Union City, San Jose, CA 94587, USA), fluorescence changes were measured at room temperature. Online additions were carried out in a volume of 50 μL/well. Antagonists were incubated 15 min before the addition of the agonist. Maximum change in fluorescence, expressed in percent of baseline fluorescence, was used to determine agonist response.
(§4) Analysis of the binding data was performed using the Origin 7.5 software (OriginLab Corporation, Northampton, MA, USA). In calcium mobilization experiments, data were analyzed by non-linear curve fitting equation, using GraphPad 5.0 software. […] Ligand efficacy was expressed as intrinsic activity (α), calculated as the ratio between the Emax of the ligand and that of the respective standards. Calcium mobilization data were expressed as FIU (fluorescence intensity units) in percent, over the baseline. Agonist potencies are given as pEC50 (the negative logarithm to base 10 of the molar concentration of an agonist that produces 50% of the maximal possible effect, Emax). Concentration response curves to agonists were fitted with the following equation: Effect = baseline + (Emax − baseline)/(1+10^(LogEC50 − X) ∗ HillSlope) where X is the agonist concentration. […]

human-KOR [2] = target: T1, human-KOR; test: Calcium mobilization assay, CHO-KOR cells expressing Gαqi5; format: cell-based; parameters: expressed in transfected cells; gift of Dr. Larry Toll (SRI International); infected with a retrovirus for Gαqi5; details: for KOR pEC50 (CL95%): agonist mode, crc incomplete = incomplete concentration response curve at 10 μM
Description: as §1, §2, §3, §4

rat-MOR [3] = target: T3, rat-MOR (Rattus norvegicus, UniProt P33535); parameters: method as in PMID 27234885; details: read-out: Ki (μM) ± SEM MOR; [3H]-DPN displacement; cited from earlier work
T3 construct: expressed in transfected cells

rat-DOR [4] = target: T4, rat-DOR (Rattus norvegicus, UniProt P33533); parameters: method as in PMID 27234885; details: read-out: Ki (μM) ± SEM DOR; [3H]-DPN displacement; cited from earlier work
T4 construct: expressed in transfected cells

recombinant human MOR = target: T5, recombinant human MOR (Homo sapiens, UniProt P35372); test: Calcium mobilization assay, CHO-MOR cells expressing Gαqi5; format: cell-based; details: for MOR pEC50 (CL95%): agonist mode, crc incomplete = incomplete concentration response curve at 10 μM
T5 construct: expressed in transfected cells; gift of Dr. Larry Toll (SRI International); infected with a retrovirus for Gαqi5

rat-MOR [5] = target: T3, rat-MOR; test: Radioligand competition binding, [3H]-DPN, HEK293 membranes, MOR; details: [3H]-DPN displacement; means ± SEM of three experiments in duplicate; read-out: Ki (μM) ± SEM MOR
Description: (§5) All synthesized compounds were tested in vitro by radioligand competition binding using [^3H]-diprenorphine ([^3H]-DPN) to measure the affinity for opioid receptor subtypes in membranes from HEK293 cells stably expressing either MOR, DOR, or KOR, as previously described.
(§6) Confluent monolayers of HEK293 (human embryonic kidney 293) cells stably expressing rat-MOR, rat-DOR, or human-KOR were harvested, collected by centrifugation at 1500 rpm for 5 min, and washed once with phosphate-buffered saline (PBS) at pH 7.5. Membranes from cell pellets were carried out as described by Georgoussi and Zioudrou (1993) and Papakonstantinou et al. (2015). Briefly, cell pellets were resuspended in ice-cold membrane buffer (10 mM Tris-HCl, pH 7.5 and 0.1 mM EDTA), homogenized, and centrifuged at 2,000 g for 3 min at 4 °C. Supernatants were further centrifuged at 45,000 rpm for 30 min at 4 °C. The membrane pellet was resuspended in ice-cold membrane buffer at a protein concentration of approximately 1 mg/mL and stored in aliquots at −70 °C. Protein concentration was determined according to Bradford assay.
(§7) In the experiments designed to define compound affinity and selectivity for MOR, DOR, and KOR, membranes expressing each of these opioid receptors ([…]) were incubated at 30 °C for 45 min in buffer containing 50 mM Tris-HCl, pH 7.5, 100 mM NaCl, and 10 mM MgCl2 as described by Georgoussi et al. […] The ability of compounds 10–16 to displace [^3H]-DPN (3.75 nM) binding to the opioid receptors was assessed as described by Morou And Georgoussi (2005). Non-specific binding was measured in the presence of […] Naloxone. The reaction was stopped by rapid filtration and three washes in ice-cold 50 mM Tris-HCl, pH 7.4, through GF/C filters (Whatman, Maidstone, UK) using an automated cell harvester (Brandel Inc., Gaithersburg, MD, USA). The radioactivity was measured by liquid scintillation counting (Liquid Scintillation Analyzer, Packard).
(§8) Analysis of the binding data was performed using the Origin 7.5 software (OriginLab Corporation, Northampton, MA, USA). In calcium mobilization experiments, data were analyzed by non-linear curve fitting equation, using GraphPad 5.0 software. […] Ligand efficacy was expressed as intrinsic activity (α), calculated as the ratio between the Emax of the ligand and that of the respective standards. Calcium mobilization data were expressed as FIU (fluorescence intensity units) in percent, over the baseline. Agonist potencies are given as pEC50 (the negative logarithm to base 10 of the molar concentration of an agonist that produces 50% of the maximal possible effect, Emax). Concentration response curves to agonists were fitted with the following equation: Effect = baseline + (Emax − baseline)/(1+10^(LogEC50 − X) ∗ HillSlope) where X is the agonist concentration.

human-KOR [6] = target: T1, human-KOR; test: Radioligand competition binding, [3H]-DPN, HEK293 membranes, KOR; parameters: expressed in transfected cells; details: [3H]-DPN displacement; means ± SEM of three experiments in duplicate; read-out: Ki (μM) ± SEM KOR
Description: as §5, §6, §7, §8

rat-DOR [7] = target: T4, rat-DOR; test: Radioligand competition binding, [3H]-DPN, HEK293 membranes, DOR; details: [3H]-DPN displacement; means ± SEM of three experiments in duplicate; read-out: Ki (μM) ± SEM DOR
Description: as §5, §6, §7, §8

Row | Compound | Ki (human-KOR [1]) [µM] | Kb (recombinant human DOR) [nM] | DOR pEC50 (CL95%) (recombinant human DOR; Inactive = inactive at 10 μM) | Kb (human-KOR [2]) [nM] | KOR pEC50 (CL95%) (human-KOR [2]; Inactive = inactive at 10 μM) | Ki (rat-MOR [3]) [µM] | Ki (rat-DOR [4]) [µM] | Kb (recombinant human MOR) [nM] | MOR pEC50 (CL95%) (recombinant human MOR; Inactive = inactive at 10 μM) | Ki (rat-MOR [5]) [µM] | melting point | Ki (human-KOR [6]) [µM] | DOR pKB (CL95%) (recombinant human DOR; antagonist mode, DPDPE as agonist, Inactive = inactive at 10 μM) | KOR pKB (CL95%) (human-KOR [2]; antagonist mode, dynorphin A as agonist, Inactive = inactive at 10 μM) | Ki (rat-DOR [7]) [µM] | Kb (recombinant human MOR; antagonist mode, dermorphin as agonist, Inactive = inactive at 10 μM, read-out: MOR pKB (CL95%) (converted)) [nM]
1 | CC1C2Cc3ccc(O)cc3C1(C)CCN2CCC(=O)Nc1cccc2ccccc12 (stereo not shown) [Compound 2] | 0.8 ± 0.016 | 166 | Inactive | 1380 | Inactive | 0.038 ± 0.004 | 0.21 ± 0.03 | 12.6 | Inactive ^e | – | – | – | – | – | – | –
2 | C[C@H]1[C@H]2Cc3ccc(O)cc3[C@]1(C)CCN2CCC(=O)N1CCc2ccccc21 [Compound 14, 1-(2,3-Dihydro-1H-indol-1-yl)-3-[(2R,6R,11R)-8-hydroxy-6,11-dimethyl-1,4,5,6-tetrahydro-2,6-methano-3-benzazocin-3(2H)-yl]propan-1-one] | – | – | Inactive | – | Inactive | – | – | – | Inactive | 0.4 ± 0.03 | 169 °C (dec.) | 1.6 ± 0.12 | Inactive | Inactive | 1.4 ± 0.12 | 1150
